The values that follow come from patent US20050033056A1, “Hydroxylated indole derivatives and uses thereof” (priority 2001, published 2005).

One data set relates to major CYP expression. Put plainly: CYP induction in primary hepatocyte cultures (summary statement, major CYPs). Format: cell-based, human. The following applies: 72 hour exposure to 10 or 50 μM; primary hepatocyte cultures from three subjects. The method, then: Upon receiving a primary culture of human hepatocytes in 6-well plates, the culture medium containing streptomycin/penicillin was refreshed (2 ml/well). […] Compound 1 stock solution was added to the culture medium at a 1:400 ratio (v/v). The culture medium and testing compounds were replenished every 24 hours.
At the end of the treatment, the cells were harvested into 1 mL of phosphate-buffered saline (PBS) after washing twice. The cells were precipitated by centrifugation, and were resuspended in PBS (approximately 50 μL). The sample preparation, after mixing with […] of Laemmli buffer (62.5 mM Tris-HCl containing 2% SDS, 25% glycerol, and 0.01% bromophenol, pH 6.8) and being rocked for 2-4 hours, was mixed with 10 μL of 2-mercaptoethanol, and heated at 90° C. for 10 minutes before electrophoresis.
Proteins were resolved in a 12% SDS-PAGE gel using a mini gel apparatus at a constant voltage ([…]) for 70-80 minutes, and transferred onto a polyvinylidene difluoride (PVDF) membrane using a membrane-transferring unit at a constant voltage ([…]) for 60 minutes. The membrane was blocked by 5% non-fat dried milk (NFDM) blotting buffer (PBS containing 0.05% Tween 20) at 4° C. overnight. […] CYP proteins were detected by […] using an X-ray developer.

For a further data set, the target named is CYP2C19 (Homo sapiens, UniProt P33261). The experiment in a line: CYP inhibition in HLM: S-mephenytoin 4'-hydroxylation. Format: in vitro ADME. Details: tissue Gentest Corp. (Woburn, Mass.); host or cells: pooled human liver microsomes. The conditions noted are these: in the presence of Compound 1, concentration-dependent. How it is done: The incubations were carried out in test tubes (12.0×75 mm). The incubation mixtures (250 μL) contained 0.5 mg of HLM protein, 50 (CYP1A2 and CYP2E1) or 25 (CYP2C9, CYP2C19, CYP2D6 and CYP3A4) pmol of recombinant human CYPs, Compound 1 (10 or 50 μM), probe substrate (R—, S-warfarin, chlorzoxazone, S-mephenyloin, or bufuralol) at different concentrations, and 0.5 mg of NADPH in 50 mM Tris buffer containing 15 mM MgCl2 (pH 7.4). Compound 1 was added to the reaction mixture 5 minutes prior to the addition of the probe substrate. […]
The quantification was based on the calibration curves, and the quality control (QC) samples were applied to ensure the quality of the experiments. […]
4. […] MRM was applied for the quantification. […]
Data were acquired and analyzed by ChemStation (Version 6.03, Hewlett Packard, Waldbronn, Germany) for 6-, 7-, and 10-hydroxywarfarin and 6-hydroxychlorzoxazone, and MacQuan (Version 1.6, PE Biosystem, Foster City, Calif.) for 1′-hydroxybufuralol and 4′-hydroxymephenytoin. Quantification was based on peak area ratios of metabolites over the respective IS against the respective concentration of the metabolites. […] The metabolic rates were determined using Excel (Microsoft Office 97, Microsoft Corporation, Redmond, Wash.) or SigmaPlot (Version 6.00, SPSS Inc. Chicago, Ill.). […]

CYP2C19, sequence (P33261 whole entry): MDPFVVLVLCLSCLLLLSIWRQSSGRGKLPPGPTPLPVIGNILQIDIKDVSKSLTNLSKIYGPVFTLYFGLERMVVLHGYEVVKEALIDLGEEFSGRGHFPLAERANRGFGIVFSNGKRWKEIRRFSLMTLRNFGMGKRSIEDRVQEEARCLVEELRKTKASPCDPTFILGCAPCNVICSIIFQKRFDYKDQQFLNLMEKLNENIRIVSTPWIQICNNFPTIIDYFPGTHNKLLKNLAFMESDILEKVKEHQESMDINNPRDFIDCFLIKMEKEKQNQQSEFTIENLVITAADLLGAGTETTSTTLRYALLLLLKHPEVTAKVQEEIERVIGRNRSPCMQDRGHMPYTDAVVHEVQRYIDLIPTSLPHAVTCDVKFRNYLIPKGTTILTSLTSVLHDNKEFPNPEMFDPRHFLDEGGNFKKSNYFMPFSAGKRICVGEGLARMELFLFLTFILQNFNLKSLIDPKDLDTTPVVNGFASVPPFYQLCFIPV

Consider `CNC(=O)Cc1ccc2ccn(C3CCN(CCc4ccccc4F)CC3)c2c1` [Compound 1, N-methyl-[1-[1-(2-fluorophenethyl)piperidine-4-yl]-1H-indol-6-yl] acetamide], for which the “Induction of major CYP expression (immunochemical detection)” value in the data set with major CYP expression was “not detected”. The “effect on CYP2C19-mediated S-mephenyloin 4'-hydroxylation activity (in words)” value at CYP2C19 was “significantly reduced”.
